Legend:
[1] = tested on: follicle stimulating hormone; assay: Serum FSH levels (double antibody radioimmunoassay); type: in vivo, mice
Source text: Aged (about 16-20 weeks old) virgin aromatase transgenic females were used to investigate the effect of the aromatase inhibitor, COMPOUND I, as a chemopreventive agent against the preneoplastic and neoplastic changes induced in mammary glands of these mice. In this study, age-matched transgenic females were divided into four groups, one group (n=10) served as control group, the […]; […] propyl cellulose (in phospate buffered saline). Control animals were given s.c. injection of vehicle. COMPOUND I was a gift from Drs. Ajay Bhatnagar and Dean Evans of Novartis Pharma (Basel, Switzerland). At the end of the 6-week treatment, mammary glands were removed and one gland each was used for histological analysis. All other glands were pooled then used for biochemical analysis as described below. Along with the mammary glands, uterus and ovaries was collected for biochemical and histological analyses.
Blood from both control and COMPOUND I-treated groups was collected by cardiac puncture directly before harvesting tissues. Serum concentrations of estradiol were measured by double antibody radioimmunoassay using commercially available reagents (Diagnostic Products Corp., Los Angeles, Calif.). […] FSH levels were measured using a standard double antibody radioimmunoassay. […] Differences in mean estradiol or FSH levels were compared, and significance was determined using paired Student's t-test.

estradiol = assay: Serum estradiol levels (double antibody radioimmunoassay); type: in vivo, mice; settings: for circulating estrogen (estradiol) level: control 12.5 pg/ml, no significant difference
Method: (§1) Aged (about 16-20 weeks old) virgin aromatase transgenic females were used to investigate the effect of the aromatase inhibitor, COMPOUND I, as a chemopreventive agent against the preneoplastic and neoplastic changes induced in mammary glands of these mice. In this study, age-matched transgenic females were divided into four groups, one group (n=10) served as control group, the other groups received daily s.c. injection of COMPOUND I and three different doses; 0.25, 05, 1.0 μg COMPOUND I per animal in 100 μl of 0.3% hydroxy propyl cellulose (in phospate buffered saline). Control animals were given s.c. injection of vehicle. COMPOUND I was a gift from Drs. Ajay Bhatnagar and Dean Evans of Novartis Pharma (Basel, Switzerland). At the end of the 6-week treatment, mammary glands were removed and one gland each was used for histological analysis. All other glands were pooled then used for biochemical analysis as described below. Along with the mammary glands, uterus and ovaries was collected for biochemical and histological analyses.
Blood from both control and COMPOUND I-treated groups was collected by cardiac puncture directly before harvesting tissues. Serum concentrations of estradiol were measured by double antibody radioimmunoassay using commercially available reagents (Diagnostic Products Corp., Los Angeles, Calif.). […] Assaying increasing volumes of serum from 50 to 200 μl produced a displacement line parallel to the standard curve. Intra-assay and inter assay coefficients of variation averaged <10.0 and 6.7%, respectively. FSH levels were measured using a standard double antibody radioimmunoassay. Purified FSH obtained from NIH hormone resource was used as a standard. Differences in mean estradiol or FSH levels were compared, and significance was determined using paired Student's t-test.

[2] = tested on: aromatase transgenic mice; assay: Effect on uterus and ovary histo-morphological features / normal endocrinological functions; type: in vivo
Method: The skin containing the mammary fat pads was fixed in 10% neutral buffered formalin for at least 24 h. The mammary glands were then dissected free from skin and processed for histological examinations (D. Medina, Preneoplastic lesions in mouse mammary tumorigenesis, Methods Cancer Res. 7 (1973) 3-53. 514). Routine section of mammary tissues, uterus and ovary were prepared after fixation by embedding in paraf.n, sectioning at 5 μM, and staining with H&E. To immunolocalize aromatase expression, 5 μM thick sections of aromatase and nontransgenic mammary gland tissue were used. After deparaffination and rehydration in xylene and ethanol, nonspecific sites were blocked by incubating with 1% normal goat serum in 0.05M Tris-HCl buffer. After decanting the reagents, the sections were covered with rabbit polyclonal antibody to rat aromatase synthetic peptide in 1:100 dilution (aromatase antibody was obtained from Dr. Evan Simpson, University of Texas Southwestern Medical Center, Dallas, Tex.; currently at Prince Henry's Institute, Clayton, Vic., Australia). The samples were incubated overnight at 4° C. in a humidied chamber. After three washings with 0.05M Tris-HCl buffer, the slides were incubated with alkaline phosphate conjugated secondary antibody for 30 min at room temperature and washings were repeated and sections were incubated with 1% fast red/naphthol AS phospate solution for 5 min. Sections were washed again and cover slipped and staining pattern was observed using light microscope.
Aged (about 16-20 weeks old) virgin aromatase transgenic females were used to investigate the effect of the aromatase inhibitor, COMPOUND I, as a chemopreventive agent against the preneoplastic and neoplastic changes induced in mammary glands of these mice. In this study, age-matched transgenic females were divided into four groups, one group (n=10) served as control group, the other groups received daily s.c. injection of COMPOUND I and three different doses; 0.25, 05, 1.0 μg COMPOUND I per animal in 100 μl of 0.3% hydroxy propyl cellulose (in phospate buffered saline). […]

lactoferrin, ER, and PR = assay: Western blot of lactoferrin, ER and PR protein levels in uterus tissue; type: in vivo, mice; settings: 1.0 μg per day per animal
Method: as §1
(§2) To isolate proteins from mammary gland and uterine tissue of both control and COMPOUND I-treated aromatase animals, the tissues were homogenized in lysis buffer. Equal amounts (60 ug) of protein from each sample was separated on a denaturing polyacrylamide gel and transferred to a nylon membrane. […]

[3] = tested on: estrogen receptor (ER), progesterone receptor (PR), cyclin D1 and proliferating cell nuclear antigen (PCNA); assay: Western blot of ER, PR, cyclin D1 and PCNA protein levels in mammary tissues; type: in vivo, mice; settings: 5 μg
Method: as §1, §2

[4] = tested on: aromatase transgenic mice; settings: 5 μg/mouse/daily, previous studies; cited from earlier work

In the case of `N#Cc1ccc(C(c2ccc(C#N)cc2)n2cncn2)cc1` [COMPOUND I], the “circulating FSH level” value ([1]; 0.5 μg, no significant difference to control) is reported as 200 ng/mL, the “circulating FSH level” value ([1]; 5.0 μg, difference to control very significant (paired Student's t-test)) is reported as 480 ng/mL and the “circulating estrogen (estradiol) level” value (estradiol; 0.25 μg per day per animal) is reported as 12.1 pg/mL. For the same compound, the “circulating estrogen (estradiol) level” value (estradiol; 0.5 μg per day per animal) was 12.5 pg/mL, the “circulating levels of estradiol” value (estradiol; dose of 0.5 μg per day per animal as printed in last sentence of b103) was 2 pg/mL and the “effect on histo-morphological features of the uterus and ovary” value (from here on “effect on histo-morphological features”) ([2]; 0.25 μg per day per animal) was “no effect”. The “effect on histo-morphological features” value ([2]; 0.5 μg per day per animal) was “no effect”, the “effect on histo-morphological features” value ([2]; 1 μg per day per animal) was “no effect” and the “decrease in expression of the uterine marker lactoferrin vs control” value (lactoferrin, ER, and PR) was 1.8 fold. The “level of PCNA, reduction” value [3] was 50% and the “effect on normal endocrinological functions” value [4] was “affected some normal endocrinological functions”.
